Experiments:
[1] = biological target: T1, IR-Grb14 interaction (Homo sapiens, UniProt P06213); experiment: Co-immunoprecipitation of IR-Luc with Grb14-YFP in a cell-free system (Western blot); format: binding; settings: for reduction of the amount of co-precipitated IR-Luc: dose series, results not shown
T1 construct: a vector encoding the insulin receptor fused to the luciferase (IR-Luc); made in house; host or cells: HEK293T (transfected); IR-Luc was partially purified on wheat germ lectin sepharose; Grb14-YFP was used as crude lysate
Method: The inhibitory effect of the compounds according to the invention on the IR-Grb14 interaction has been confirmed in co-immunoprecipitation experiments in a cell-free system. IR-Luc extracts, stimulated or not by insulin, […] before being incubated with the cellular extract containing the fusion protein Grb14-YFP for 40 minutes. Immunoprecipitation against YFP allows to analyze by Western blot the amount of receptor that has remained associated with the Grb14 protein.

[2] = system: PI3K/Akt pathway; experiment: Luc-Akt-PH/YFP-membrane BRET in HEK293T cells (recruitment of Akt to the membrane); format: cell-based; settings: for BRET delta (recruitment of the Akt protein to the membrane): 50 μM
Excerpt: (§1) To measure the activity of the PI3-kinase pathway by the BRET technique, HEK293T cells are transfected with plasmids allowing, on the one hand, the expression of the PH (Pleckstrin Homology) domain of the Akt protein which has been fused to the luciferase and, on the other hand, a membrane-addressing sequence which has been fused to the YFP protein. When the PH domain of Akt is recruited to the membrane by the PIP3s, an energy transfer between the luciferase that is coupled to the PH domain of Akt and the membrane YFP protein takes place. The measured BRET signal is a control of the production of PIP3s at the membrane and is a reflection of the activation of the PI-3-kinase/Akt pathway in real time on cells.

[3] = system: PI3K/Akt pathway; experiment: Luc-Akt-PH/YFP-membrane BRET in MCF7 line; format: cell-based; settings: 50 μM, MCF7 cells
Method: FIG. 5A and FIG. 5B, the effect of the compound of Formula (Ia) according to the invention (black bars) on the activation of the PI3K/Akt pathway measured by the Luc-Akt-PH/YFP-membrane BRET technique compared to the DMSO (Dimethylsulfoxide) control (white bars) as measured on (FIG. 5A) HEK293T cells pre-incubated or not for 1 h with tyrosine kinase inhibitor AG1024 at a concentration of 25 μM final or on (FIG. 5B) an MCF7 line doubly and stably transfected with the vectors encoding Luc-Akt-PH and YFP-membrane. The results, expressed as BRET delta, are the average of 3 to 8 independent experiments (**p<0.01, ***p<0.001, by Newman-Keuls multiple comparison test).
as §1, with “cells. […]” for “cells.”

[4] = system: PEPCK and G6Pase expression; experiment: Expression of neoglucogenesis genes in hepatocytes in primary culture (RT-qPCR); format: cell-based, mice; settings: 50 μM; glucagon 10 nM; absence of insulin; 8 h
Method: FIG. 6, the effect of the compound of Formula (Ia) according to the invention (black bars) on the expression of insulin target genes, PEPCK (FIG. 6A) and G6Pase (FIG. 6B), involved in the neoglucogenesis pathway. Hepatocytes in primary culture are cultured for 8 h in the presence of compounds of Formula (Ia) (50 μM), insulin (1 nM) and glucagon (pre-incubation 1 h at 10 nM). The relative quantification of mRNAs is performed by RT-qPCR. The values are related to the quantification of the 18S gene in the same sample in order to normalize the results. The results are the average of 3 to 5 independent experiments (*p<0.05, **p<0.01, by Anova followed by a Newman-Keuls test).
To study the inhibitory effect of insulin on neoglucogenesis gene expression, hepatocytes from mice in primary culture were pre-incubated with 10 nM glucagon.

[5] = absence of insulin, results not shown

T1 sequence (P06213 763-1382 limits assumed): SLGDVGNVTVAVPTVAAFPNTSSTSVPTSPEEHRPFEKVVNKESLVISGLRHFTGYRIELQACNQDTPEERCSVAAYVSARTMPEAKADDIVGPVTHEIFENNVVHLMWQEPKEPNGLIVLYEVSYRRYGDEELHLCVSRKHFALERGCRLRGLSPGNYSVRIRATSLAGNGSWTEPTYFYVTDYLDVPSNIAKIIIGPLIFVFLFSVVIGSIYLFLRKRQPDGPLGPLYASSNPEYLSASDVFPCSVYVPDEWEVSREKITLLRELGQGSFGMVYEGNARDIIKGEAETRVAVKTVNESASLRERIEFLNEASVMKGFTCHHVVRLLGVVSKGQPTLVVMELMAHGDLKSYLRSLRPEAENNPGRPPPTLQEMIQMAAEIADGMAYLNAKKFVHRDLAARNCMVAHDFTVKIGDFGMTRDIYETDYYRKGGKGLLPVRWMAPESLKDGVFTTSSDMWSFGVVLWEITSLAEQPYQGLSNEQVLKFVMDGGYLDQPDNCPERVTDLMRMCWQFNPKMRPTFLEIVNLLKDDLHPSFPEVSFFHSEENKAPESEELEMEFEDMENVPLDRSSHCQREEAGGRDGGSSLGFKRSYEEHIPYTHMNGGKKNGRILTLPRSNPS
T1 sequence (P06213 28-758 partner limits assumed): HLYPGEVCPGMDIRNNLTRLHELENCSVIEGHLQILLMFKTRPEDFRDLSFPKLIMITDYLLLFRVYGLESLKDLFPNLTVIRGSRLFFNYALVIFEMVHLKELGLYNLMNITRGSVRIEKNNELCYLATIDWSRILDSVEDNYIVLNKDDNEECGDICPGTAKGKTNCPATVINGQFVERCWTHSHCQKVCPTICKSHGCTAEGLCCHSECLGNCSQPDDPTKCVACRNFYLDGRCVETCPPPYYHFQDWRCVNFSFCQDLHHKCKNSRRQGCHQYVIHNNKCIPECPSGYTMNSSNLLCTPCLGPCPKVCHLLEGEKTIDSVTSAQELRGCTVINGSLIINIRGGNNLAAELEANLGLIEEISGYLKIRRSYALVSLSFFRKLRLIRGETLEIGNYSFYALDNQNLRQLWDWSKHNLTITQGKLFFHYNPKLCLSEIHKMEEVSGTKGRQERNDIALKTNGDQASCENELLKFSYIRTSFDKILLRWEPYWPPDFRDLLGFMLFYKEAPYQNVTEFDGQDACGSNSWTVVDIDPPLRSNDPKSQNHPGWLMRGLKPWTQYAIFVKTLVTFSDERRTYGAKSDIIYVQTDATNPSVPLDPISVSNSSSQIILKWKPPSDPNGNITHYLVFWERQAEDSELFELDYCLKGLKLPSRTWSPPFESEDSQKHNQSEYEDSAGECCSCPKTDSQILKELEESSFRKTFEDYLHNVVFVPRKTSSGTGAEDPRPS

Cc1ccc(/C=C/C(=O)Nc2ccc(S(=O)(=O)Nc3onc(C)c3C)cc2)o1 [Ia]
reduction of the amount of co-precipitated IR-Luc ([1]; 25 μM): 20% | reduction of the amount of co-precipitated IR-Luc ([1]; 50 μM): 50% | inhibition at 50 µM ([1]; 50 μM, in the presence of insulin, read-out: reduction of the amount of insulin receptors associated with the Grb14 protein): 60% | BRET delta (recruitment of the Akt protein to the membrane) ([2]; absence of insulin): about 86 | BRET delta (recruitment of the Akt protein to the membrane) ([2]; presence of 5 nM insulin): about 121 | concentration at which the increase in the BRET signal / PI3K/Akt activation is significant [2, 5]: 10 µM | concentration from which the effect on the BRET signal is detectable [2, 5]: 5 µM | effect on the recruitment of the Akt protein to the membrane after AG1024 ([2]; cells pre-incubated 1 h with 25 μM AG1024, Ia 50 μM, insulin 5 nM): no longer have any effect | BRET delta ([2]; without insulin): 86 (+/−41) | effect on the production of PIP3s at the membrane ([3]; absence of insulin): no effect | effect on the production of PIP3s at the membrane ([3]; presence of 100 nM insulin): no effect | decrease in glucagon-induced G6Pase expression [4]: about 20% | decrease in glucagon-induced PEPCK expression [4]: about 20%

From patent US11020378B2, “Compounds, compositions and methods for treating insulin resistance” (UNIVERSITE PARIS DESCARTES, priority 2017, dated 2021)
